In PMC5420810 (Annals of Clinical and Translational Neurology, 2017):

What was measured:
[1] = Pharmacokinetic analysis of clobazam and stiripentol after a single ip injection; assay type: in vivo, Wild‐type and Scn1a +/− mice
[2] = Plasma drug concentration after subchronic oral treatment in chow; details: for Subchronic treatment plasma concentration: mg/kg chow: carbamazepine 7500, clobazam 160 (NCLB = metabolite after clobazam), lamotrigine 125, levetiracetam 1350, phenobarbital 300, stiripentol 4000, topiramate 850, valproic acid 4500, mean ± SEM, n = 5–8
Scn1a +/− mice [3] = test: Hyperthermia‐induced seizures; assay type: in vivo, mouse; details: for Effect on hyperthermia‐induced seizure response: single‐point ip doses targeting human therapeutic range (Table 1)
Scn1a +/− mice [4] = test: Spontaneous seizure; assay type: in vivo, mouse; details: for Effect on spontaneous GTCS frequency: subchronic treatment in chow, naïve mice, 60 h recording
Dravet syndrome patients = test: Retrospective chart review of anticonvulsant responses in Dravet syndrome; assay type: in vivo, human; details: for Patients with effective response with tolerable side effects / Effectiveness in Dravet syndrome cohort: patient or parent‐reported
Scn1a +/− mice [5] = test: Survival analysis; assay type: in vivo, mouse; details: for Mice surviving through P30: naïve mice, chow treatment from P18, untreated 67% (14/21)
Scn1a +/− mice [6] = test: Spontaneous GTCS following hyperthermic seizure priming; assay type: in vivo, mouse; details: hyperthermia‐primed, clobazam 160 mg/kg chow, 60 h P19–P21 (4/16); untreated 61%
[7] = single ip 10 mg/kg clobazam, analyte = labelled substance

Structure (SMILES): O=C1CC(=O)N(c2ccccc2)c2cc(Cl)ccc2N1 [NCLB, N‐desmethylclobazam]
- Cmax in plasma [1, 7]: 3100 ng/mL
- tmax [1, 7]: 1.5 h
- Subchronic treatment plasma concentration [2]: 0.6 ± 0.03 µg/mL

Structure (SMILES): CCCC(CCC)C(=O)O [Valproic Acid]
- Effect on hyperthermia‐induced seizure response (Scn1a +/− mice [3]): no effect
- Protection from hyperthermia‐induced GTCS (Scn1a +/− mice [3]; valproic acid 100 mg/kg ip): 30%
- Protection from hyperthermia‐induced GTCS (Scn1a +/− mice [3]; valproic acid 200 mg/kg ip): 50%
- Protection from hyperthermia‐induced GTCS (Scn1a +/− mice [3]; valproic acid 300 mg/kg ip): 100%
- Effect on spontaneous GTCS frequency (Scn1a +/− mice [4]): did not result in a statistically significant change
- Patients with effective response with tolerable side effects (Dravet syndrome patients; Dravet syndrome cohort): > 50%

Structure (SMILES): Nc1nnc(-c2cccc(Cl)c2Cl)c(N)n1 [Lamotrigine]
- Mice that experienced a hyperthermia‐induced GTCS (Scn1a +/− mice [3]; lamotrigine 20 mg/kg ip, 12 mice, vehicle 10 of 12): 12 mice
- Threshold temperature for hyperthermia‐induced GTCS (Scn1a +/− mice [3]; lamotrigine 20 mg/kg ip, vehicle C 41.8 ± 0.1): 40.5 ± 0.3 °C
- Effect on hyperthermia‐induced seizure response (Scn1a +/− mice [3]): significantly worsened
- Seizures that escalated to tonic hindlimb extension (Scn1a +/− mice [4]; naïve cohort, lamotrigine chow, untreated 33% (17/52)): None of the 155 seizures
- Effect on spontaneous GTCS frequency (Scn1a +/− mice [4]): significantly worsened
- Survival through P42 (6‐week survival) (Scn1a +/− mice [5]; lamotrigine chow from P18, untreated 68% (15/22)): completely prevented lethality
- Patients with significant worsening of seizures (Dravet syndrome patients; Dravet syndrome cohort): approximately 50%
- Patients with significant worsening of seizures (patients/patients trialed) (Dravet syndrome patients; Dravet syndrome cohort): 25/50

Structure (SMILES): O=C1CN=C(c2ccccc2Cl)c2cc([N+](=O)[O-])ccc2N1 [clonazepam]
- Patients with effective response with tolerable side effects (Dravet syndrome patients; Dravet syndrome cohort): less than 45%

Structure (SMILES): CC[C@@H](C(N)=O)N1CCCC1=O [Levetiracetam]
- Effect on spontaneous GTCS frequency (Scn1a +/− mice [4]): did not result in a statistically significant change
- Mice surviving through P30 (Scn1a +/− mice [5]): 100%
- Effectiveness in Dravet syndrome cohort (Dravet syndrome patients): limited effectiveness

Structure (SMILES): NC(=O)N1c2ccccc2CC(=O)c2ccccc21 [oxcarbazepine]
- Patients with significant worsening of seizures (Dravet syndrome patients; Dravet syndrome cohort): approximately 50%
- Patients with significant worsening of seizures (patients/patients trialed) (Dravet syndrome patients; Dravet syndrome cohort): 28/50

Structure (SMILES): CC(C)(C)C(O)/C=C/c1ccc2c(c1)OCO2 (stereo not shown) [Stiripentol]
- AUC(0-inf) ([1]; mouse, plasma, ip, 100 mg/kg): 210 µg·h/mL
- Cmax ([1]; mouse, plasma, ip, 100 mg/kg): 46000 ng/mL
- half-life ([1]; mouse, plasma, ip, 100 mg/kg): 2.82 h
- tmax ([1]; mouse, plasma, ip, 100 mg/kg): 1.5 h
- Effect on hyperthermia‐induced seizure response (Scn1a +/− mice [3]): no effect
- Effect on hyperthermia seizure threshold temperature vs vehicle (Scn1a +/− mice [3]; stiripentol 100 mg/kg ip): increased threshold temperature
- Protected from hyperthermia‐induced GTCS (Scn1a +/− mice [3]; stiripentol 300 mg/kg ip (3/13)): 23%
- Patients with effective response with tolerable side effects (Dravet syndrome patients; Dravet syndrome cohort): > 50%

Structure (SMILES): NS(=O)(=O)Cc1noc2ccccc12 [Zonisamide]
- Effectiveness in Dravet syndrome cohort (Dravet syndrome patients): limited effectiveness

Structure (SMILES): O=C1NC(=O)C(c2ccccc2)(c2ccccc2)N1 [Phenytoin]
- Effect on hyperthermia‐induced seizure response (Scn1a +/− mice [3]): no effect
- Patients with significant worsening of seizures (Dravet syndrome patients; Dravet syndrome cohort): approximately 50%
- Patients with significant worsening of seizures (patients/patients trialed) (Dravet syndrome patients; Dravet syndrome cohort): 15/31

Structure (SMILES): NC(=O)N1c2ccccc2C=Cc2ccccc21 [Carbamazepine]
- Effect on hyperthermia‐induced seizure response (Scn1a +/− mice [3]): no effect
- Mice surviving through P30 (Scn1a +/− mice [5]): 100%
- Patients with significant worsening of seizures (Dravet syndrome patients; Dravet syndrome cohort): approximately 50%
- Patients with significant worsening of seizures (patients/patients trialed) (Dravet syndrome patients; Dravet syndrome cohort): 16/32

Structure (SMILES): CCC1(c2ccccc2)C(=O)NC(=O)NC1=O [Phenobarbital]
- Effect on spontaneous GTCS frequency (Scn1a +/− mice [4]): did not result in a statistically significant change
- Effectiveness in Dravet syndrome cohort (Dravet syndrome patients): limited effectiveness
- concentration at 24 h ([2]; mouse, plasma, oral, 300 mg per kg of chow, Plasma level, hyperthermia‐primed mice, phenobarbital chow, 24 h post seizure induction, primed): 17800 ± 3200 ng/mL

Structure (SMILES): CC1(C)O[C@@H]2[C@@H](CO[C@@]3(COS(N)(=O)=O)OC(C)(C)O[C@@H]23)O1 [Topiramate]
- Effect on hyperthermia‐induced seizure response (Scn1a +/− mice [3]): no effect
- Mice surviving through P30 (Scn1a +/− mice [5]): 100%
- Patients with effective response with tolerable side effects (Dravet syndrome patients; Dravet syndrome cohort): less than 45%

Structure (SMILES): CN1C(=O)CC(=O)N(c2ccccc2)c2cc(Cl)ccc21 [Clobazam]
- AUC(0-inf) ([1]; mouse, plasma, ip, 10 mg/kg): 2.58 µg·h/mL
- half-life ([1]; mouse, plasma, ip, 10 mg/kg): 0.633 h
- Protection from hyperthermia‐induced GTCS (Scn1a +/− mice [3]; clobazam 0.1 mg/kg ip, P14–P16): 37.5%
- Protection from hyperthermia‐induced GTCS (Scn1a +/− mice [3]; clobazam 1 mg/kg ip): 50%
- Protection from hyperthermia‐induced GTCS (Scn1a +/− mice [3]; clobazam 10 mg/kg ip): Complete protection
- Effect on spontaneous GTCS frequency (Scn1a +/− mice [4]): did not result in a statistically significant change
- Mice exhibiting spontaneous GTCS (Scn1a +/− mice [6]): 25%
- Cases with seizure reduction (Dravet syndrome patients; Dravet syndrome cohort): ~75%
- Patients with effective response with tolerable side effects (Dravet syndrome patients; Dravet syndrome cohort): > 50%
- Subchronic treatment plasma concentration [2]: BQL
